Results as given in US8263757B2, “Promiscuous HER-2/Neu CD4 T cell epitopes” (Dendreon Corporation, priority 2006, dated 2012).

How the values were obtained:
[1] = system: T cell clone HER500.23c21; assay: Antigen-specific stimulation of T cell clone HER500.23c21 by protein antigens presented by autologous PBMC (IFNγ ELISA, IL-2 by HT-2 proliferation); type: cell-based, human; details: autologous PBMC presentation, increasing doses of antigen; for IFNγ and IL-2 production by HER500.23c21 in response to antigen: 48 hours
Procedure: FIG. 1. T cell clone HER500.23c21 is HER-2/Neu specific. (A) HER500 (amino acids ▪ and BA7072 (HER500/GM-CSF fusion protein) ♦ specific IFNγ production by HER500.23c21 was measured using ELISA after autologous PBMC presentation of the antigens; background was also tested ▴. Assay was set up in triplicate in 96 well round bottom plates in complete IMDM media with 10% FBS. Autologous PBMCs were used at 2×10^5 cells/well and T cell clone HER500.23c21 was added at 1×10^5 cells/well. Antigens were at the final concentrations shown. Assay was incubated for 48 hours at 37° C. with 5% CO2 and supernatant was removed from wells to test for cytokine production. (A) IFNγ production. Data points shown represent the calculated pg/mL for each antigen concentration. (B) IL-2 production for the same assay was measured using HT-2 cell proliferation. Data points represent the mean CPM values for each antigen concentration.
Identification and Characterization of HER-2/neu specific T cell clones. Clones were screened for antigen specificity using autologous PBMC and antigen or autologous EBV-LcL and Her500 peptides. Stimulations were set up in 96 well round bottom plates in cRPMI+10% FBS media and incubated for 48 hours at 37° C. with 5% CO2. Additionally, clones were stained for CD4 and CD8 surface expression by flow cytometry.
Cytokine Production. To determine cytokine production in the antigen specific stimulation assays, after 48 hours, 200 μL of supernatant was pulled from cultures and tested for both IL-2 and IFNγ production. IL-2 production was measured using the IL-2 dependent line HT-2 (ATCC). HT-2 cells were grown in IMDM with 10% FBS and 100 uM NEAA, 1 mM Sodium Pyruvate, 2 mM L-glutamine, […], 50 U/mL Streptomycin, 20 mM HEPES and 20 uM 2-Mercaptoethanol (cIMDM+10% FBS) and fed twice a week with 20 ng/mL rIL-2. For the assay, 4 days after HT-2 cells were split, cells were washed with IMDM+10% FBS to remove all rIL-2, and cells were added to 96 well round bottom plates at 1×10^4 cells/well in cIMDM+10% FBS. Supernatants from antigen specific stimulation were added to wells and plates were incubated 24-30 hours at 37° C. The following day 1 μCi of ^3[H] TdR was added for the final 6 hours of the assay and plates were harvested to glass fiber filter mats and DNA incorporation of the radioisotope, or proliferative response, was determined by counts per minute using a liquid scintillation counter (PerkinElmer Life and Analytical Sciences, Inc. Boston, Mass.). IFNγ production was measured using anti-human IFNγ antibody pairs for ELISA (BD Pharmingen, San Diego, Calif.). […] 2M HCl was added to stop the reaction and plates were read for absorbance at 492 nm on a spectrophotometer. […]

[2] = system: T cell clone HER500.23c21; assay: Minimal epitope: truncated HERp270-284 peptides presented by EBV LcL lines of diverse HLA-DRB1 alleles to HER500.23c21; type: cell-based, human; details: presented by EBV LcL lines representing HLA-DRB1 alleles *0301, *0302, *1301 and *1402
Description: FIG. 5. Graphic depiction of IFNγ production by HER500.23c21 following exposure to peptides presented by EBV LcL lines of diverse HLA-DRb1 alleles. The peptides were 9-mers (SEQ ID NOS:3-9) within the HER-2/Neu peptide 270-284 (SEQ ID NO:2).
FIG. 6. Graphic depiction of IFNγ production by HER500.23c21 following exposure to peptides presented by EBV LcL lines of diverse HLA-DRb1 alleles. The peptides were 10- or 11-mers (SEQ ID NOs:12-15, 10, 1, 16-19 and 11, respectively) within the HER-2/Neu peptide 270-284.
Because of the clear response of HER500.23c21 to HER-2/Neu protein sequences, the specific epitope recognized by HER500.23c21 was mapped using peptides. HER500.23c21 was tested against a panel of 125 individual overlapping 15-mer peptides covering the HER-2/Neu protein sequences within HER500. Each peptide was used at 1 ug/ml with autologous EBV LCL cells as antigen presenting cells. […]
In this series of experiments, additional peptides derived from the HER-2/Neu protein were tested for their potential as promiscuous MHC Class II HER-2/neu epitopes. […] Supernatants were harvested and analyzed for IFNγ production using ELISA. […] Results of the IFNγ produced by clone HER500.23c21 in response to peptide and each HLA-DR allele are reported in pg/mL of IFNγ or as absorbance at 492 nm.

| Substance | dose dependence of HER500.23c21 response to protein [1] | IFNγ and IL-2 production by HER500.23c21 in response to antigen [1] | Stimulation of HER500.23c21 [2] |
| --- | --- | --- | --- |
| BA7072: proprietary recombinant fusion protein: HER500 expressed as a fusion protein with hGM-CSF | dose dependent manner | specifically produced IFNγ and IL-2 | – |
| HER500: recombinant protein containing sequences from both the ECD and ICD of HER-2/neu; HER-2/neu portion of BA7072 | dose dependent manner | specifically produced IFNγ and IL-2 | – |
| TYNTDTFESMP (HER-2p270-284 11-mer) [SEQ ID NO:11, 11-mer truncation of HERp270-284] | – | – | successful |
| VTYNTDTFESM (HER-2p270-284 11-mer) [SEQ ID NO:10, 11-mer truncation of HERp270-284] | – | – | successful |
